Measured values from US8143254B2, “Methods for modulating ion channels” (Cornell Research Foundation, Inc., priority 2005, dated 2012).
Positions count from the first letter of the chain named. Several values for one entry are separate records, joined by “and”; a condition that tells them apart may be missing. Identical values can stand only once.

Legend:
Assay type in all cases: cell-based
Δ1-28 Kv3.4 channels = molecular target: T1, Δ1-28 Kv3.4 channels (Homo sapiens, UniProt Q03721); experiment: TEVC current-voltage relationship of Δ1-28 Kv3.4 in Xenopus oocytes; conditions: 1 mM
T1 construct: expressed in transfected cells; host or cells: Xenopus oocytes (cRNA injection)
T1 sequence (Q03721 29-635): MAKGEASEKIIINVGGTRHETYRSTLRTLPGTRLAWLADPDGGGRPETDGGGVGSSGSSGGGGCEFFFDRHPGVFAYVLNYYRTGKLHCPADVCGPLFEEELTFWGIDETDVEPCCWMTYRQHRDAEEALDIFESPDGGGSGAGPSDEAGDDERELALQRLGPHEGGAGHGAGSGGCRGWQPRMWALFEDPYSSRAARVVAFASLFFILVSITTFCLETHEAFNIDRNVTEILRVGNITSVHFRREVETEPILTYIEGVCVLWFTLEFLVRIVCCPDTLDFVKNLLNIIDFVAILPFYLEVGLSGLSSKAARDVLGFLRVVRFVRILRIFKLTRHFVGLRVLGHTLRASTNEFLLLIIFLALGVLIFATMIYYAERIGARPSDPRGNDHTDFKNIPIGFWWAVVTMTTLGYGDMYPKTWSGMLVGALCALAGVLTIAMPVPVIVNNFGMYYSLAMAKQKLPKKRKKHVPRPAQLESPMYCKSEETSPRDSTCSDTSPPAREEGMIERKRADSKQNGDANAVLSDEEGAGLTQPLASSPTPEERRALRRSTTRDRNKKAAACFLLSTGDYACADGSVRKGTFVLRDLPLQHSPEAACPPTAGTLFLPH
Description: FIG. 6. Opening and block of Kv3.4 by two didabco compounds show voltage-dependency. Normalized I/V relationship for Δ1-28 Kv3.4 currents in oocytes in the absence (control) or presence as indicated of 1 mM JC279.3a or JC638.2a. Peak currents during 2 s pulses to voltages between −80 and +60 mV (protocol upper left insert) were recorded, before and after drug was washed in during successive 0.1 Hz, 2 s pulses from −80 to 0 mV until equilibrium block or opening was observed. Points are means from n=3-16 oocytes; error bars indicate SEM.
Whole-cell two-electrode voltage-clamp (TEVC) recordings were performed on X laevis oocytes expressing cloned Kv2.1, Kv3.4 or Kv4.2 using a Warner OC-725C amplifier and pClamp9 (Axon Instruments, Foster City, Calif.) software. Oocytes were bathed in a small-volume Warner oocyte bath and viewed with a Fisher dissection microscope. Bath solution for whole-cell oocyte recordings was (in mM): 96 NaCl, 4 KCl, 0.7 MgCl2, 1 CaCl2, 10 HEPES (pH 7.4); whole-cell oocyte TEVC pipettes were of 0.2-2 M resistance when filled with 3 M KCl. Experiments were performed 24-48 hours after cRNA injection. For assessment of current-voltage relationships in the absence or presence of dabco derivatives, oocytes were held at −80 mV, stepped for 2 seconds at voltages between −80 mV and +60 mV in 20 mV steps (Kv2.1) or between −80 and +50 mV in 10 mV steps (Kv3.4), then held for 500 ms at −40 mV before returning to the holding potential. For assessment of block during wash-in of dabco derivatives at a single voltage, oocytes were held at −80 mV, and repetitively stepped to 0 mV for 2 s with an interpulse interval of 10 s or 60 s as indicated. A range of concentrations of dabco or dabco derivatives were washed in via the bath solution during repetitive single-voltage pulses (after an initial period of 5 pulses with control solution to ensure current stabilization) until equilibrium block was achieved, to establish dose-responses. Inhibited currents are compared to the current at the end of 5-pulse control period, thus some bar graphs show ‘control’ current values slightly less than 1, and with an error bar, to show how much currents deviate in the absence of drug. Washout was performed after the highest concentration of blocker was washed in. […]
To investigate the mechanism of Kv channel block or opening by didabco compounds, the current-voltage relationship (I/V curve) of Δ1-28 Kv3.4 channels expressed in Xenopus oocytes was assessed using TEVC recording in the absence and presence of a didabco opener (JC279.3a, the 10 CH2-group didabco from FIG. 3) or a didabco blocker (JC638.2a, the para didabco from FIG. 4).

Kv2.1-K356C = molecular target: T2, Kv2.1-K356C (Rattus norvegicus, UniProt P15387, K360C); experiment: Cysteine protection experiments, K356C variant of Kv2.1 in oocytes; conditions: K356C mutant
T2 construct: expressed in transfected cells; host or cells: Xenopus laevis oocytes (cRNA from pGA1)
T2 sequence (P15387 1-857 K360C): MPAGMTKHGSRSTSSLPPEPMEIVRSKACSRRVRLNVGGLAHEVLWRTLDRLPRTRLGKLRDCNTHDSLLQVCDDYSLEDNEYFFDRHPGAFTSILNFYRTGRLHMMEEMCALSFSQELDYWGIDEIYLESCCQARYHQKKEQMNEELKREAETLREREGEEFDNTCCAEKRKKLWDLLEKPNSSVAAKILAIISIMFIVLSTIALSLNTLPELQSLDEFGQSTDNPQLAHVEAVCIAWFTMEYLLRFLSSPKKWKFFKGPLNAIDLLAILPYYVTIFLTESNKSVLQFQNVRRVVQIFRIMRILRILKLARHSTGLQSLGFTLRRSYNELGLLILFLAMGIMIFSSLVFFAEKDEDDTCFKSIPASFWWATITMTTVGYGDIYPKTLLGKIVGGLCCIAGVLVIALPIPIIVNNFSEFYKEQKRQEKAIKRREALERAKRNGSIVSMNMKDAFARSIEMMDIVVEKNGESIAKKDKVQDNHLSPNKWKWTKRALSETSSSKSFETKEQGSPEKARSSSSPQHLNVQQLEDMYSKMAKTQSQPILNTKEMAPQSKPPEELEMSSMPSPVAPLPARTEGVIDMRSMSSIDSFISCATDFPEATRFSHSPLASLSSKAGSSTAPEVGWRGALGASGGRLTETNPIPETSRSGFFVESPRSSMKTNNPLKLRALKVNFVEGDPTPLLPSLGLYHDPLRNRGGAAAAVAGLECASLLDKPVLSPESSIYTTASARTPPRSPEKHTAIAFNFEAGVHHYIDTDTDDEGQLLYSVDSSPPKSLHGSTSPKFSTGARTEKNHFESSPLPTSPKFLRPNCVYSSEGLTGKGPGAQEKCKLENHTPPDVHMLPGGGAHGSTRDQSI
From the text: (§1) Kv2.1 mutants were constructed using the QuickChange Multi Site-Directed Mutagenesis Kit (Stratagene, La Jolla, Calif.). Mutant Kv2.1 genes (in the pGA1 oocyte expression vector for oocyte expression) were sequenced in their entirety to confirm appropriate mutations and check for inadvertent mutations, and then subcloned into a wild-type pGA1 backbone. For oocyte expression, Kv3.4 was in pBF1, Kv4.2 was in pRAT. cRNA transcripts were produced from SacII-linearized (Kv2.1), Mlullinearized (Kv3.4) and Not1-linearized (Kv4.2) DNA templates using the T3 (Kv2.1), SP6 (Kv3.4) and T7 (Kv4.2) mMessage mMachine kits (Ambion, Austin, Tex.). cRNA was quantified by spectrophotometry and its size integrity verified by gel electophoresis. Defolliculated stage V and VI Xenopus laevis oocytes (purchased from Nasco, Grand Island, N.Y.) were injected with 5 ng of cRNA encoding Kv2.1, Kv3.4 or Kv4.2. Chinese Hamster Ovary (CHO) cells were transfected with 0.25 μg Kv2.1 cDNA, 2 μg blank plasmid and 2 μg Green fluorescent Protein in pBOB using Supetfect transfection reagent (Qiagen) 24 hours before whole-cell voltage clamp studies.
Whole-cell two-electrode voltage-clamp (TEVC) recordings were performed on X laevis oocytes expressing cloned Kv2.1, Kv3.4 or Kv4.2 using a Warner OC-725C amplifier and pClamp9 (Axon Instruments, Foster City, Calif.) software. Oocytes were bathed in a small-volume Warner oocyte bath and viewed with a Fisher dissection microscope. Bath solution for whole-cell oocyte recordings was (in mM): 96 NaCl, 4 KCl, 0.7 MgCl2, 1 CaCl2, 10 HEPES (pH 7.4); whole-cell oocyte TEVC pipettes were of 0.2-2 M resistance when filled with 3 M KCl. Experiments were performed 24-48 hours after cRNA injection. For assessment of current-voltage relationships in the absence or presence of dabco derivatives, oocytes were held at −80 mV, stepped for 2 seconds at voltages between −80 mV and +60 mV in 20 mV steps (Kv2.1) or between −80 and +50 mV in 10 mV steps (Kv3.4), then held for 500 ms at −40 mV before returning to the holding potential. For assessment of block during wash-in of dabco derivatives at a single voltage, oocytes were held at −80 mV, and repetitively stepped to 0 mV for 2 s with an interpulse interval of 10 s or 60 s as indicated. A range of concentrations of dabco or dabco derivatives were washed in via the bath solution during repetitive single-voltage pulses (after an initial period of 5 pulses with control solution to ensure current stabilization) until equilibrium block was achieved, to establish dose-responses. Inhibited currents are compared to the current at the end of 5-pulse control period, thus some bar graphs show ‘control’ current values slightly less than 1, and with an error bar, to show how much currents deviate in the absence of drug. Washout was performed after the highest concentration of blocker was washed in. In cases where washout was achieved, only those recordings in which current returned to within 10% of original current level were used for construction of dose-response curves. For cysteine protection experiments using the K356C variant of Kv2.1, a dabco derivative (JC638.2a) was washed in to equilibrium block, followed by wash-in of a solution containing both JC638.2a and MTSET until no further changes in current were seen; following this the solution was washed out with standard bath solution. As controls for this protection analysis, JC638.2a or MTSET were washed in alone until equilibrium block, then washed out.

[1] = molecular target: T3, Kv2.1 channels expressed in CHO cells (Rattus norvegicus, UniProt P15387); experiment: Whole-cell voltage clamp of CHO cells transfected with Kv2.1; conditions: 20 mM, 0 mV
T3 construct: expressed in transfected cells; host or cells: CHO cells (transient, co-transfected with GFP plasmid)
T3 sequence (P15387 1-857): T2 sequence (P15387 1-857 K360C) with C360K
From the text: as §1
For whole-cell voltage clamp studies of CHO cells, bath solution was (in mM): 135 NaCl, 5 KCl, 1.2 MgCl2, 5 HEPES, 2.5 CaCl2, and 10 D-glucose, pH 7.4. Pipettes were 3-5 MQ resistance when filled with intracellular solution containing (in mM): 10 NaCl, 117 KCl, 2 MgCl2, 11 HEPES, 11 EGTA, and 1 CaCl2, pH 7.2. For experiments with extracellular drug application, cells were held at −80 mV and subjected to 2 sec test pulses […] every 30 s. Whole-cell patch clamp recordings were performed at 22-25° C. using an IX50 inverted microscope equipped with epifluorescence optics for GFP detection (Olympus), a Multiclamp 700 A Amplifier, a Digidata 1300 Analogue/Digital converter and pClamp9 software (Axon Instruments). Leak and liquid junction potentials (<4 mV) were not compensated for when generating current-voltage relationships. For intracellular drug application, the tip of the recording electrode was first filled with drug-free intracellular solution, the electrode was then back-filled with intracellular solution containing TEA (20 mM), TA279 (5 mM) or JC638.2α (0.5 mM). Cells were held at −80 mV and subjected to 2 sec test pulses from −60 mV to +60 mV in 10 mV increments, followed by a 1 sec tail pulse to −30 mV. After an initial recording which we denoted time 0, a second recording was performed after 5 minutes.
Data analysis: Current-voltage relationships were obtained by measuring peak current during depolarizing pulses. Inhibition constants for DABCO blockers were calculated after generating a dose response curve by fitting with a logistic dose-response function y=A2+[A1−A2/1+(x/x0)^p], where A1 is the maximum response plateau, A2 is the minimum response plateau, x is drug concentrator, x0 is the IC50, and p the Hill slope. Data analysis was performed using CLAMPFIT 9 (Axon Instruments, Foster City, Calif.) and tabulated in Excel 5.0. Graphs were generated using Origin 6.1. Data are expressed as mean±SEM, with n specifying the number of independent experiments. Statistical significance was assessed by one-way ANOVA with p<0.05 being indicative of significance.

C(CCCCC[N+]12CCN(CC1)CC2)CCCC[N+]12CCN(CC1)CC2 [JC279.3a, 1,10-[bis(4-aza-1-azoniabicyclo[2.2.2]octanyl)]decane]
block or opening of Δ1-28 Kv3.4 (Δ1-28 Kv3.4 channels): opener
voltage dependence of block or opening of Kv3.4 (Δ1-28 Kv3.4 channels; attenuated at more depolarized voltages): voltage-dependent

C[N+](C)(C)CCSS(C)(=O)=O [MTSET, reference compound]
current inhibition, administered alone (Kv2.1-K356C): 56±3%

CC[N+](CC)(CC)CC [TEA, tetraethylammonium, reference compound]
block on intracellular application ([1]; after 5 minutes): ~88% and 80%
block on intracellular application ([1]; time 0): ~85% and 70%
